How the values were obtained:
HL-60 cells = test: Apoptosis morphology in HL-60 cells (Hoechst 33258 staining, fluorescence microscopy); type: cell-based, Human; settings: xanthorrhizol 40 μM, 24 hr
Method: Human promyelocytic leukemia (HL-60) cells were maintained at 37° C. in a humidified atmosphere of 95% air and 5% CO2 in RPMI 1640 supplemented with 10% (v/v) heat-inactivated fetal bovine serum (FBS). HL-60 cells were cultured in 6-well plate in RPMI 1640 medium containing 10% FBS in the absence or presence of the methanolic extract of Curcuma xanthorrhiza (15 μg/ml) and xanthorrhizol (40 μM) and centrifuged after 24 hr. 4% neutral buffered formaline was added to the cell and the mixture was transferred to slides, which were left at room temperature for dryness. The fixed cells were washed in PBS, air-dried and stained with DNA-specific fluorochrome Hoechest 33258 for 1 min. The adhered cells were washed with PBS, air dried, and mounted with 50% glycerol. The slides were observed by fluorescence microscopy.

COX-2 = test: Inhibition of COX-2 expression induced by TPA in mouse skin (western blotting); type: in vivo, ICR mice; settings: topical pretreatment 30 min before TPA 10 nmol; skin taken 4 hr later
Method: It is known that the expression of COX-2 increases in mouse skin treated with TPA. Therefore, the effect of xanthorrhizol on COX-2 expression induced by TPA was measured as follows on the basis of this fact.
Female ICR mice of about 5 weeks of age were purchased from the Daehan Experimental Animal Center (Seoul, Korea). Mice were kept on a 12 h light/dark cycle.
The dorsal region of mice was shaved with an electric clipper. 2 days later, xanthorrhizol dissolved in 0.2 ml acetone was topically applied on mouse skin followed by topical application of TPA (10 nmol) dissolved in 0.2 ml acetone after 30 min. Mice were sacrificed by cervical dislocation 4 hr later. The skin was excised and the fat was removed. Fat-free skin was immediately placed in liquid nitrogen and pulverized in mortar.
Pulverized mouse skin was lysed in 400 μl of lysis buffer [150 mM NaCl, 0.5% Triton X-100, 50 mM tris-HCl, pH 7.4, 20 mM EGTA, 1 mM DTT, 1 mM Na3VO4, protease inhibitor cocktail tablet] for 30 min on ice. Lysates were centrifuged and total protein in supernatant was quantified by Bio-Rad protein assay. Aliquots of supernatant containing 30 μg protein were boiled in SDS sample loading buffer for 5 min before electrophoresis on a 12% SDS-polyacrylamide gel. […]

quinone reductase (QR) = test: Induction of quinone reductase activity in Hepa 1c1c7 cells; type: cell-based, rat; settings: 48 hours, compared with the control
Method: Hepa 1c1c7 cell (2.5×10^4/ml), a liver cancer cell of […], was seeded into 96 well plate and was cultured in 10% FBS-αL-MEM (Gibco BRL) at 37° C. for 24 hours in 5% CO2 of humidified air. 190 μl of fresh media and 10 μl of xanthorrhizol dissolved in 10% of DMSO was added to above culture media and it was cultured under 5% CO2 at 37° C. for 48 hours. The culture media were discarded, and after washing with PBS (phosphate buffered saline), 50 μl of reaction solution containing 0.8% digitonin and 2 mM EDTA was added to each well, and it was cultured for 10 minutes to destroy the cell. […] Then, 50 μl of 5 mM potassium phosphate (pH 7.4) solution containing 0.3 mM of dicoumarol was added to terminate the reaction and the absorbance at 595 nm was measured spectrophotometrically.
To assess the effect of xanthorrhizol on cell growth, protein was measured in the 2nd plate set cultured under same condition above. […] And 200 μl of 0.5% SDS was added to cell and mixed, then the absorbance at 595 nm was measured spectophotometrically.
To estimate the experimental result, firstly, QR specific activity of each group treated with xanthorrhizol and the control group was calculated by following equation 1. […] QR specific activity=(Absorbance change of MTT per min/Absorbance change of crystal violet)×3247 nmol/mg [Equation 1] […]

Question: `CC(C)=CCC[C@@H](C)c1ccc(C)c(O)c1` [xanthorrhizol] was tested. Which “morphological characteristics of apoptosis” value (HL-60 cells) did it give?
Answer: Its value is “distinct chromatin condensation and nuclear fragmentation”.

Question: What about the “expression of COX-2 induced by TPA” value (COX-2) of the same compound?
Answer: The value was “decreased by pretreatment with xanthorrhizol in a dose-dependent manner”.

Question: What about the “QR induction ratio (treated/control)” value (quinone reductase (QR); 0.4 μM) of the same compound?
Answer: The value was “about 125%”.

Question: What about the “QR induction ratio (treated/control)” value (quinone reductase (QR); 50 μM) of the same compound?
Answer: The value was ~130%.
